Measurements published in patent US6362197B1, “Compositions and method for treatment of cough” (Cardiome Pharma Corp., priority 1998, dated 2002).

Legend:
[1] = system: citric acid-induced cough responses; experiment: Citric acid aerosol-induced cough in conscious guinea-pigs, 5 min aerosol pre-treatment; format: in vivo, guinea-pig; conditions: for Mean latency of cough: time to onset of first cough after initiation of citric acid aerosol: 5 min pre-treatment; for Mean latency of cough: time to onset of first cough after initiation of citric acid aerosol / Total coughs: number of coughs over 15 min following initiation of 1M citric acid aerosol: mean ± SEM; for Inhibition of cough responses compared with matched vehicle pre-treated guinea pigs: Example 2, aerosol pre-treatment immediately before citric acid exposure; for Anti-tussive activity (in words): Example 2, experiment similar to Example 1
Excerpt: Male albino Dunkin-Hartley strain guinea-pigs (weight 300-400 g) were supplied by Harlan UK Ltd., Bicester, Oxon, UK.
The method used was modified from that described by Adcock J. J., Schneider C. and Smith T. W., “Effects of Morphine and a Novel Opioid Pentapeptide BW443C, on Cough, Nociception and Ventilation in the Unanaesthetized Guinea-pig”, Br. J. Pharmacol., 93, 93-100 (1988). Individual conscious guinea-pigs were placed unrestrained into a sealed purpose built perspex exposure chamber (3,000 cm^3 volume) and allowed to acclimatize prior to aerosol administration.
Cylinder air was introduced into the exposure chamber at a flow rate of 1 liter/min, maintained by a needle valve and monitored by a rotameter. From the rotameter the air passed through the cup of an ultrasonic nebulizer (DeVilbis UltraNeb 2000) which was used to generate aerosols of drug or citric acid at 0.15 ml/min. A Fleisch pneumotachograph, connected to a differential pressure transducer (Grass model PT5) was attached to the outflow from the exposure chamber and provided a measurement of airflow from the chamber. The differential pressure transducer was connected to a Grass polygraph from which a hard copy record was produced. The output from the polygraph was directed to a computerized data acquisition system (Poh-Ne-Mah) for real time recording of data. A tie-clip microphone was placed in the exposure chamber and connected via a pre-amplifier to a loudspeaker output to provide the observer with an audio monitor of responses.
Cough responses were induced by exposure to an aerosol of citric acid (1M) for 10 minutes. Animals were continuously monitored by trained observer, and the number of coughs were counted during a 15 minute period from commencement of the citric acid aerosol administration.
The three types of response were differentiated primarily by sound and visual observation. […] Data recorded for individual guinea-pigs on the Poh-Ne-Mah system was stored on an optical disk. Each cough was marked on the Grass polygraph paper trace, and from these record numbers, frequency and time of onset of coughs were determined. The cough response was defined by a characteristic coughing sound and behavior, associated with a marked biphasic pressure change.
Quantities of drugs were weighed out and dissolved in a vehicle. Equal volumes were aliquotted into sample tubes before being passed, together with another sample tube containing the same volume of vehicle, to an independent observer for coding. Pre-treatments were matched by concentration together with a vehicle control group. Five guinea-pigs were randomly allocated to each treatment group. […] The sequence of pre-treatment administration was determined according to a 4×4 Latin Square design.
Data presented as the mean ±SEM number of coughs produced by individual guinea-pigs within each group during the 15 minute observation period or mean±SEM latency of cough were analyzed using one way analysis of variance to compare mean responses between matched groups of animals (doses) and between unmatched groups (treatments) followed by the Tukey-Kramer multiple comparison test where appropriate.

[2] = system: citric acid-induced cough responses; experiment: Duration of anti-tussive effect against citric acid-induced cough, pre-treatment at various times; format: in vivo, guinea pig; conditions: 10 mg/ml aerosol
Procedure: Test agents or vehicle were administered as aerosol pre-treatments (10 mg/ml, 5 minute duration) at 5 minutes, 30 minutes, 1 hour, 2 hours and 4 hours prior to induction of cough responses by citric acid aerosol.

[3] = system: capsaicin aerosol-induced cough; experiment: Capsaicin aerosol-induced cough in conscious guinea pigs, 5 min aerosol pre-treatment; format: in vivo, guinea pig; conditions: for Reduction of number of capsaicin-induced cough responses compared with matched vehicle: 5 minute pre-treatment; for Change of mean latency of cough onset: capsaicin-induced cough
[4] = system: citric acid-induced cough responses; experiment: Therapeutic aerosol treatment after induction of cough by citric acid aerosol; format: in vivo, guinea pig; conditions: aerosol 10 mg/ml for 5 min, given 2 minutes after citric acid exposure began
Procedure: Vehicle or test agents were administered as aerosols (10 mg/ml; 5 minute duration) 2 minutes after exposure to citric acid aerosol began. Cough responses were recorded during a 15 minute observation period (t=0 to t=15 min.) from initiation of citric acid exposure.

[5] = system: citric acid-induced cough responses; experiment: Citric acid-induced cough responses in ozone-exposed conscious rabbits; format: in vivo, rabbit; conditions: rabbits exposed to ozone 3 ppm 1 hour, aerosol 10 mg/ml, citric acid 1.6 M, 10 minute count; vehicle 22.0±5.1
Procedure: Investigation of Antitussive Activity of Aerosolized Compound 1 on Citric Acid-induced Cough Responses in Conscious Rabbits
Twenty-two male New Zealand white rabbits were randomly allocated to either of two groups of 11 rabbits.
Pairs of rabbits (control versus test) were placed in individual exposure chambers with an airflow of 5 liter/min through the chambers.
Each rabbit was exposed to ozone (3 ppm) for 1 hour.
The rabbits were then immediately exposed to aerosols of either vehicle (chamber 1) or Compound 1 (10 mg/ml, chamber 2) at a nebulization rate of 0.9 ml/min.
Cough responses were induced with citric acid aerosol (1.6 M).
Coughs were counted during the 10 minute exposure to citric acid.

For `C[N+](C)(CC(=O)Nc1ccccc1)CC(=O)Nc1ccccc1.[Cl-]` [Compound 1, N,N-Bis-(phenylcarbamoylmethyl)dimethylammonium chloride], the “Percentage reduction of the cough response compared with matched vehicle control groups” value (from here on “Percentage reduction”) ([1]; aerosol conc. 0.1 mg/ml) was “(25.3%)”, the “Mean latency of cough: time to onset of first cough after initiation of citric acid aerosol” value (shortened to “Mean latency of cough: time”) ([1]; aerosol conc. 0.1 mg/ml) was 88 ± 6 s and the “Total coughs: number of coughs over 15 min following initiation of 1M citric acid aerosol” value ([1]; aerosol conc. 0.1 mg/ml) was 22.4 ± 6.0. The “Cough frequency (in words)” value ([1]; aerosol conc. 1.0 mg/ml) was “frequency of coughs was reduced”, the “Percentage reduction” value ([1]; aerosol conc. 1.0 mg/ml) was “(40.4%)” and the “Mean latency of cough: time” value ([1]; aerosol conc. 1.0 mg/ml) was 103 ± 11 s. The “Total coughs: number of coughs over 15 min following initiation of 1M citric acid aerosol” value ([1]; aerosol conc. 1.0 mg/ml) was 16.8 ± 4.0, the “Guinea-pigs in the group with cough responses completely inhibited” value ([1]; aerosol conc. 10 mg/ml) was 4 of the 5 and the “Latency of cough onset (in words)” value ([1]; aerosol conc. 10 mg/ml) was “prolonged the latency of cough onset”. For the same compound, the “Percentage reduction” value ([1]; aerosol conc. 10 mg/ml) was “(97.6%)”, the “Sneezing in animals that did not cough” value ([1]; aerosol conc. 10 mg/ml) was “marked absence of sneezing” and the “Mean latency of cough: time” value ([1]; aerosol conc. 10 mg/ml) was 778 ± 137^-- seconds. For the same compound, the “Total coughs: number of coughs over 15 min following initiation of 1M citric acid aerosol” value ([1]; aerosol conc. 10 mg/ml) was 0.6 ± 0.6^--, the “Inhibition of cough responses” value ([2]; pre-treatment 30 minutes before citric acid) was 63% and the “Inhibition of cough responses” value ([2]; pre-treatment 60 minutes before citric acid) was 60.7%. The “Inhibition of cough responses” value ([2]; pre-treatment 2 hours before citric acid) was 44.0%, the “Reduction in mean number of citric acid-induced cough responses” value ([2]; pre-treatment 4 hours before citric acid) was 15% and the “Inhibition of cough responses compared with matched vehicle pre-treated guinea pigs” value ([2]; pre-treatment immediately before citric acid exposure) was 84.9%. The “Increase of latency of cough onset” value ([2]; pre-treatment immediately prior to citric acid exposure) was 3.3 fold, the “Reduction of number of capsaicin-induced cough responses compared with matched vehicle” value (“Reduction of number … with matched vehicle” for short) ([3]; aerosol 10 mg/ml) was 25% and the “Change of mean latency of cough onset” value ([3]; aerosol 10 mg/ml) was “no significant effect”. For the same compound, the “Reduction of number … with matched vehicle” value ([3]; aerosol 30 mg/ml) was 76.9%, the “Change of mean latency of cough onset” value ([3]; aerosol 30 mg/ml) was 2.1 fold and the “Inhibition of number of cough responses between t=2 and t=10 minutes” value [4] was 70.8%. For the same compound, the “Inhibition of total number of cough responses during the 15 minute observation period compared with matched vehicle” value ([4]; t=0 to t=15 min) was 63.8%, the “Number of citric acid-induced cough responses, mean ± SEM” value [5] was 2.7±0.9 coughs and the melting point was 177 to 178 °C.

For `Cc1cccc(C)c1NC(=O)C[N+](C)(C)C.[Cl-]` [Compound 2, N-(2,6-dimethylphenylcarbamoylmethyl) trimethylammonium chloride], the “Inhibition of cough responses compared with matched vehicle pre-treated guinea pigs” value [1] was “over 80%” and the “Anti-tussive activity (in words)” value [1] was “effective”.

With `CC[N+](CC)(CC)CC(=O)Nc1c(C)cccc1C.[Cl-]` [Compound 3, N-(2,6-dimethylphenylcarbamoylmethyl) triethylammonium chloride] the “Inhibition of cough responses compared with matched vehicle pre-treated guinea pigs” value [1] was “over 70%” and the “Anti-tussive activity (in words)” value [1] was “effective”.

In the case of `CCN(CC)CC(=O)Nc1c(C)cccc1C` [Lidocaine, lidocaine, reference compound], the “Reduction of number … with matched vehicle” value ([3]; aerosol 10 mg/ml) was 42.2%, the “Change of mean latency of cough onset” value ([3]; aerosol 10 mg/ml) was 1.2 fold and the “Reduction of number … with matched vehicle” value ([3]; aerosol 30 mg/ml) was 10.3%. For the same compound, the “Change of mean latency of cough onset” value ([3]; aerosol 30 mg/ml) was 0.8 fold.
